Counter-ions that a name gives are not always drawn.
The molecules below were run against T1, h-5-HT6 receptor (Homo sapiens, UniProt P50406) (assay: 5-HT6 receptor binding assay (displacement of [3H]-LSD)). Settings: not given.
T1 construct: expressed in transfected cells
Method: Displacement of Radioligands Binding to The Following Cloned Human Receptors
Cells from stable clonal cell lines expressing the corresponding receptor (5-HT6, α1-adrenergic, dopamine D2 or histamine H1 receptors) were washed with PBS (w/o Ca^++, Mg^++) and harvested in PBS with 0.02% EDTA. The cells were collected by centrifugation at 500 g for 10 min. at 4° C., washed with PBS and centrifuged (500 g, 10 min. 4° C.). The pellets were stored at −80° C. until use. For membrane preparation, the thawed cell pellet was resuspended in ice-cold sucrose buffer (0.25 M sucrose, 10 mM Hepes (pH 7.4), 1 mM Phenylmethylsulfonyl fluoride (PMSF) in DMSO, 5 μg/ml Pepstatin-A, 3 mM EDTA, 0.025% Bacitracin) and homogenized with a Branson Sonifier W-250 (Settings: Timer 4; Output Control 3; Duty Cycle constant; 2 to 3 cycles). Cell disruption was checked with the aid of a microscope. Remaining unbroken cells were pelleted at 1.000 g for 10 min. at 4° C. The sucrose buffer supernatant was then centrifuged at 60.000 g for 1 h at 4° C. (Beckman Ultrazentrifuge XL 80). The pellet was resuspended in 30 ml ice-cold Tris buffer (20 mM TRIS (pH 7.4), 5 μg/ml Pepstatin A, 0.1 mM PMSF, 3 mM EDTA) by pipetting through a 10 ml serological pipet and centrifuged for 1 h at 4° C. at 60.000 g. A final resuspension was performed in a small volume of ice-cold Tris buffer (see above) by pressing through a serological pipet followed by ultrasonic treatment with a Branson Sonifier W-250 (Settings: Timer 1; Output Control 3; Duty Cycle constant; 1 cycle). Protein concentration was determined (BCA-Kit; Pierce) and aliquots stored at −80° C. or in liquid nitrogen for long-term storage.
All receptor binding experiments were carried out in the corresponding assay buffer in a total volume of 200 μl in the presence of various concentrations of test compound (10^−5 M to 10^−9 M, tenfold serial dilution, duplicate determinations). The assays were terminated by filtration on polyethylenimine (PEI 0.1% or 0.3%) presoaked Packard Unifilter Plates (GF/C or GF/B) with a Tomtec Machin U 96 well-plate harvester. After the plates had been dried for 2 h at 55° C. in a drying chamber scintillation cocktail (BetaPlate Scint; PerkinElmer) was added. Radioactivity was measured in a Microbeta Trilux two hours after the addition of the scintillation mixture. Data derived from liquid scintillation counting were analysed by iterative non-linear regression analysis with the use of the Statistical Analysis System (SAS): a program similar to “LIGAND” as described by Munson and Rodbard (Analytical Biochemistry 107, 220-239 (1980).
HEK293 cells stably expressing the h-5-HT6 receptor (NCBI Reference Sequence XM 001435) were cultured in RPMI1640 medium supplemented with 25 mM HEPES, 10% fetal calf serum and 1-2 mM glutamine. The membrane preparation was performed as described in section 1. […] Non-specific binding was defined with 1 μM methiothepin. The binding reaction was carried out for 3.5 h at room temperature. During the incubation, the plates were shaken on a plate shaker at 100 rpm and terminated by filtration on Packard Unifilter GF/C (0.1% PEI) plates, followed by 2 wash cycles with ice-cold 50 mM Tris-HCl, 5 mM CaCl2.
Data derived from liquid scintillation counting were analyzed by iterative non-linear regression analysis with the use of the Statistical Analysis System (SAS): a program similar to “LIGAND” as described by Munson and Rodbard (Anal. Biochem. 1980, 107, 220-239). Fitting was performed according to formulae described by Feldman (Anal. Biochem. 1972, 48, 317-338). IC50, nH and Ki values were expressed as geometrical mean.

T1 sequence (P50406 whole entry): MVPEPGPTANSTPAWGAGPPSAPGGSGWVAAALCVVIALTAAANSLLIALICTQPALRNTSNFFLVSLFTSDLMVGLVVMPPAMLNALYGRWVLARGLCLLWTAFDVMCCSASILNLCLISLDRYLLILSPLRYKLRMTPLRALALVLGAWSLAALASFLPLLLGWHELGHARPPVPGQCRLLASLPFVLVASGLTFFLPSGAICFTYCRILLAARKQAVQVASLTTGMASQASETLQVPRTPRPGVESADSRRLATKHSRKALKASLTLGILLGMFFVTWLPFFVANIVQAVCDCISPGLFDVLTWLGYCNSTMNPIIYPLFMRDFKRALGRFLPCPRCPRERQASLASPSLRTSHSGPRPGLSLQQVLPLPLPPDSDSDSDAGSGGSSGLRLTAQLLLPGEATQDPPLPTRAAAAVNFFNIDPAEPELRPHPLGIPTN

**Q.** Which Ki does the source give for Cc1ccc(S(=O)(=O)Nc2cccc(OC(F)F)c2)cc1N1CCNCC1 [Example 1, N-(3-Difluoromethoxy-phenyl)-4-methyl-3-piperazin-1-yl-benzenesulfonamide hydrochloride] here?
**A.** The Ki was under 10 nM.

**Q.** COc1ccc(S(=O)(=O)c2cccc(OC(F)F)c2)cc1N1CCNCC1 [Example 47, 1-[5-(3-Difluoromethoxy-benzenesulfonyl)-2-methoxy-phenyl]-piperazine hydrochloride] was tested. Which Ki did it give?
**A.** Its Ki is under 10 nM.

Same assay, conditions: membranes of HEK293 cells expressing h-5-HT6 receptor, 1 nM [3H]-LSD; read-out: Ki (5HT6)

**Q.** With Cc1ccc(S(=O)(=O)Nc2ccc(OC(F)F)c(OC(F)F)c2)cc1N1CCNCC1 [Example 52, N-(3,4-Bis-difluoromethoxy-phenyl)-4-methyl-3-piperazin-1-yl-benzenesulfonamide hydrochloride] as the molecule, how does the Ki read?
**A.** The Ki was under 50 nM.

**Q.** For CCCN(c1ccccc1OC(F)F)S(=O)(=O)c1ccc(OC)c(N2CCNCC2)c1 [Example 36, N-(2-Difluoromethoxy-phenyl)-4-methoxy-3-piperazin-1-yl-N-propyl-benzenesulfonamide hydrochloride], which Ki is on record?
**A.** The Ki was under 10 nM.

**Q.** Which Ki does the source give for COc1ccc(S(=O)(=O)Nc2cccc(OC(F)F)c2)cc1N1CCNCC1 [Example 24, N-(3-Difluoromethoxy-phenyl)-4-methoxy-3-piperazin-1-yl-benzenesulfonamide hydrochloride] here?
**A.** Its Ki is under 10 nM.

**Q.** For Cc1ccc(S(=O)(=O)N(c2ccccc2OC(F)F)C(C)C)cc1N1CCNCC1 [Example 39, N-(2-Difluoromethoxy-phenyl)-N-isopropyl-4-methyl-3-piperazin-1-yl-benzenesulfonamide hydrochloride], which Ki is on record?
**A.** The Ki was under 500 nM.

**Q.** CCCN(c1cccc(OC(F)F)c1)S(=O)(=O)c1ccc(OC)c(N2CCNCC2)c1 [Example 34, N-(3-Difluoromethoxy-phenyl)-4-methoxy-3-piperazin-1-yl-N-propyl-benzenesulfonamide hydrochloride] was tested. Which Ki did it give?
**A.** The Ki was under 10 nM.

**Q.** How did the Ki turn out when COc1ccc(S(=O)(=O)Nc2ccc(C)c(OC(F)F)c2)cc1N1CCNCC1 [Example 18, N-(3-Difluoromethoxy-4-methyl-phenyl)-4-methoxy-3-piperazin-1-yl-benzene-sulfonamide hydrochloride] was run?
**A.** The Ki was under 10 nM.

**Q.** With CN1CCN(c2cccc(S(=O)(=O)c3cccc(OC(F)F)c3)c2)CC1 [Example 46, 1-[3-(3-Difluoromethoxy-benzenesulfonyl)-phenyl]-4-methyl-piperazine hydrochloride] as the molecule, how does the Ki read?
**A.** Its Ki is under 10 nM.

**Q.** How did the Ki turn out when Cc1ccc(S(=O)(=O)Nc2cccc(OC(F)F)c2)cc1N1CCN(C)CC1 [Example 94, N-(3-Difluoromethoxy-phenyl)-4-methyl-3-(4-methyl-piperazin-1-yl)-benzenesulfonamide hydrochloride] was run?
**A.** The Ki was under 10 nM.

**Q.** How did the Ki turn out when COc1ccc(NS(=O)(=O)c2ccc(C)c(N3CCN(C)CC3)c2)cc1OC(F)F [Example 86, N-(3-Difluoromethoxy-4-methyoxy-phenyl)-4-methyl-3-(4-methyl-piperazin-1-yl)-benzenesulfonamide hydrochloride] was run?
**A.** Its Ki is under 500 nM.

**Q.** With Cc1ccc(S(=O)(=O)N(CC2CC2)c2ccccc2OC(F)F)cc1N1CCNCC1 [Example 9, N-Cyclopropylmethyl-N-(2-difluoromethoxy-phenyl)-4-methyl-3-piperazin-1-yl-benzenesulfonamide hydrochloride] as the molecule, how does the Ki read?
**A.** The Ki was under 500 nM.

**Q.** Cc1ccc(S(=O)(=O)Nc2cccc(OC(F)F)c2)cc1N1CCCN(C)CC1 [Example 101, N-(3-Difluoromethoxy-phenyl)-4-methyl-3-(4-methyl-[1,4]diazepan-1-yl)-benzenesulfonamide hydrochloride] was tested. Which Ki did it give?
**A.** Its Ki is under 10 nM.

**Q.** COc1ccc(S(=O)(=O)Nc2cc(C)ccc2OC(F)F)cc1N1CCN(C)CC1 [Example 67, N-(2-Difluoromethoxy-5-methyl-phenyl)-4-methoxy-3-(4-methyl-piperazin-1-yl)-benzenesulfonamide hydrochloride] was tested. Which Ki did it give?
**A.** Its Ki is under 10 nM.

**Q.** Which Ki does the source give for COc1cc(NS(=O)(=O)c2ccc(OC)c(N3CCNCC3)c2)ccc1OC(F)F [Example 93, N-(4-Difluoromethoxy-3-methoxy-phenyl)-4-methoxy-3-piperazin-1-yl-benzenesulfonamide hydrochloride] here?
**A.** Its Ki is under 10 nM.

**Q.** How did the Ki turn out when CCc1ccc(S(=O)(=O)Nc2cc(Cl)ccc2OC(F)F)cc1N1CCNCC1 [Example 61, N-(5-Chloro-2-difluoromethoxy-phenyl)-4-ethyl-3-piperazin-1-yl-benzenesulfonamide hydrochloride] was run?
**A.** Its Ki is under 10 nM.

**Q.** With COc1ccc(S(=O)(=O)Nc2cc(C)ccc2OC(F)F)cc1N1CCNCC1 [Example 72, N-(2-Difluoromethoxy-5-methyl-phenyl)-4-methoxy-3-piperazin-1-yl-benzenesulfonamide hydrochloride] as the molecule, how does the Ki read?
**A.** Its Ki is under 10 nM.

**Q.** How did the Ki turn out when Cc1ccc(NS(=O)(=O)c2ccc(C)c(N3CCN(C)CC3)c2)c(OC(F)F)c1 [Example 91, N-(2-Difluoromethoxy-4-methyl-phenyl)-4-methyl-3-(4-methyl-piperazin-1-yl)-benzenesulfonamide hydrochloride] was run?
**A.** The Ki was under 50 nM.

**Q.** How did the Ki turn out when Cc1ccc(NS(=O)(=O)c2ccc(C)c(N3CCCN(C)CC3)c2)cc1OC(F)F [Example 99, N-(3-Difluoromethoxy-4-methyl-phenyl)-4-methyl-3-(4-methyl-[1,4]diazepan-1-yl)-benzenesulfonamide hydrochloride] was run?
**A.** The Ki was under 500 nM.

**Q.** COc1ccc(S(=O)(=O)c2ccc(OC)c(N3CCNCC3)c2)cc1OC(F)F [Example 49, 1-[5-(3-Difluoromethoxy-4-methoxy-benzenesulfonyl)-2-methoxy-phenyl]-piperazine hydrochloride] was tested. Which Ki did it give?
**A.** The Ki was under 10 nM.

**Q.** With CCN(c1ccccc1OC(F)F)S(=O)(=O)c1ccc(OC)c(N2CCNCC2)c1 [Example 31, N-(2-Difluoromethoxy-phenyl)-N-ethyl-4-methoxy-3-piperazin-1-yl-benzenesulfonamide hydrochloride] as the molecule, how does the Ki read?
**A.** Its Ki is under 50 nM.

**Q.** COc1ccc(S(=O)(=O)Nc2ccc(OC(F)F)c(OC(F)F)c2)cc1N1CCNCC1 [Example 60, N-(3,4-Bis-difluoromethoxy-phenyl)-4-methoxy-3-piperazin-1-yl-benzenesulfonamide hydrochloride] was tested. Which Ki did it give?
**A.** Its Ki is under 10 nM.

**Q.** COc1ccc(S(=O)(=O)Nc2ccc(C)cc2OC(F)F)cc1N1CCN(C)CC1 [Example 70, N-(2-Difluoromethoxy-4-methyl-phenyl)-4-methoxy-3-(4-methyl-piperazin-1-yl)-benzenesulfonamide hydrochloride] was tested. Which Ki did it give?
**A.** The Ki was under 10 nM.

**Q.** Which Ki does the source give for COc1ccc(S(=O)(=O)Nc2ccc3c(c2)OC(F)(F)O3)cc1N1CCNCC1 [Example 83, N-(2,2-Difluoro-benzo[1,3]dioxol-5-yl)-4-methoxy-3-piperazin-1-yl-benzenesulfonamide hydrochloride] here?
**A.** The Ki was under 10 nM.

**Q.** For CCN(c1ccc(OC)c(OC(F)F)c1)S(=O)(=O)c1ccc(OC)c(N2CCNCC2)c1 [Example 30, N-(3-Difluoromethoxy-4-methoxy-phenyl)-N-ethyl-4-methoxy-3-piperazin-1-yl-benzenesulfonamide hydrochloride], which Ki is on record?
**A.** The Ki was under 10 nM.

**Q.** With CCCN(c1ccc(OC)c(OC(F)F)c1)S(=O)(=O)c1ccc(OC)c(N2CCNCC2)c1 [Example 33, N-(3-Difluoromethoxy-4-methoxy-phenyl)-4-methoxy-3-piperazin-1-yl-N-propyl-benzenesulfonamide hydrochloride] as the molecule, how does the Ki read?
**A.** Its Ki is under 10 nM.

**Q.** For Cc1ccc(S(=O)(=O)Nc2ccc(F)cc2OC(F)F)cc1N1CCN(C)CC1 [Example 79, N-(2-Difluoromethoxy-4-fluoro-phenyl)-4-methyl-3-(4-methyl-piperazin-1-yl)-benzenesulfonamide trifluoroacetate], which Ki is on record?
**A.** The Ki was under 50 nM.

**Q.** With CCN(c1ccccc1OC(F)F)S(=O)(=O)c1ccc(C)c(N2CCNCC2)c1 [Example 15, N-(2-Difluoromethoxy-phenyl)-N-ethyl-4-methyl-3-piperazin-1-yl-benzene sulfonamide hydrochloride] as the molecule, how does the Ki read?
**A.** The Ki was under 500 nM.
